Read-outs that look alike come from different tables or passages of the source.
Legend:
[1] = Pharmacokinetic test in mice; assay type: in vivo, ICR mice; conditions: i.g. (10 mg/kg), relative to Control compound 1
[2] = system: A375 cells; test: A375 cell proliferation inhibition test; assay type: cell-based; conditions: Homo sapiens, A-375, 72 h
Method: A375 cells (ATCC, CRL-1619) were cultured in DMEM complete medium (+10% FBS) in a CO2 incubator at 37°C for 48 h. The cells were trypsinised and counted, and then the density was adjusted to 1.67 × 10^4 cells/mL. 90 µL (1500 cells) of cells were inoculated into each well of a 96-well transparent bottom plate, and the plate was transferred to a CO2 incubator and the cells were cultured at 37°C overnight. After the cells were incubated overnight, 10 µL of the diluted compound (final concentration starting from 10 µM, 3-fold dilution, 11 concentrations) was added to each well using a multi-channel pipette. The […] control was a serum-free medium containing DMSO. After mixing evenly, the cells were placed in a CO2 incubator at 37°C for 72 h. After the incubation, the CellCounting-Lite®2.0 kit detection solution (Vazyme, DD1101-03) was taken out and returned to room temperature. 100 µL of CellCounting-Lite2.0 detection solution was added to each well, the plate was sealed with a sealing film, and the plate was placed on a shaker for shaking for 15 min (the whole process should be kept away from light). The Luminescence module of the microplate reader (BMG LRBTECH) was used to detect the fluorescence signal value LUM of each well. The formula Inhibition rate% = ((LUM Solvent−LUM Compound)/(LUM Solvent))∗100% [formula] was used to calculate the inhibition rate of the compound. The Graphpad software log(inhibitor) vs. response -- Variable slope (four parameters) equation was used to perform fitting analysis and calculate the IC50value of the sample. The ordinate of the data is the percentage of inhibition rate, and the abscissa is the logarithm of the sample concentration (Log10).

[3] = Pharmacokinetic test in mice; assay type: in vivo, ICR mice; conditions: mouse, plasma; for Vd: read-out: Vdss
Method: 3.1 Experimental animals: Male ICR mice, 20-25 g, 6 mice/compound, purchased from Chengdu Dossy Experimental Animals Co., Ltd.
3.2 Experimental design: On the day of the experiment, the ICR mice were randomly grouped according to their body weights. The animals were fasted with water available for 12-14 h one day before the administration, and were fed 4 h after the administration. Table 3.1 Administration information
vehicle for intravenous administration: 5% DMA + 5% Solutol + 90% Saline; vehicle for intragastric administration: 0.5% MC
Before and after administration, 0.06 mL of blood was taken from the orbit under isoflurane anaesthesia and placed in an EDTAK2 centrifuge tube. The tube was centrifuged at 5000 rpm at 4°C for 10 min, and plasma was collected. The blood sampling time points for both the intravenous administration group and intragastric administration group were 0 min, 5 min, 15 min, 30 min, 1 h, 2 h, 4 h, 7 h, 24 h, and 48 h. Before analysis and detection, all samples were stored at -80°C, and the samples were quantitatively analysed by LC-MS/MS. Table 3.2 Pharmacokinetic parameters of test compounds in plasma of mice

[4] = molecular target: T1, BRAFV600E (Homo sapiens, UniProt P15056, V600E); test: BRAFV600E enzyme activity test (ADP-Glo, MEK1K97R substrate); assay type: biochemical; conditions: Inhibitory activities of compounds on BRAFV600E
T1 construct: purchased ABCAM ab204154
T1 sequence (P15056 416-766 V600E limits assumed): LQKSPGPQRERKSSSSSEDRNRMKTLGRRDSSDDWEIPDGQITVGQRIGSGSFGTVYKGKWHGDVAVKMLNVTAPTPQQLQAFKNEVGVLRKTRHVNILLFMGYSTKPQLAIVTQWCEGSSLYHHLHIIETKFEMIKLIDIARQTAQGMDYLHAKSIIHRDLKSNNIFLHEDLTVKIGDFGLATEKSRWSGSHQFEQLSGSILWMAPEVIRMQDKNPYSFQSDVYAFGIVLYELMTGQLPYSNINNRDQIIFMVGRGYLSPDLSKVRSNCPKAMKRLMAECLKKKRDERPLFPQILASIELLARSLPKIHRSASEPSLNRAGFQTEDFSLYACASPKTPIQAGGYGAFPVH
Method: BRAFV600E (ABCAM, ab204154) and MEK1K97R (USBio, M2865-06J) proteins were diluted at an appropriate dilution factor using 1×Assay buffer (PH = 7.4 Tris-HCl buffer, supplemented with 10 mM MgCl2) such that the final concentration of BRAFV600E was 10 ng/µL and the final concentration of substrate MEK1K97R was 1 µM. 1 µL of BRAFV600E, 1 µL of compound serial dilution (final concentration starting from 2 µM, 5-fold dilution, 8 concentrations), and 6 µL of Assay buffer were pipetted to a 384-well reaction plate with a capacity of 20 µL. The plate was pre-incubated in a constant temperature incubator at 37°C for 30 min. 1 µL of 200 µM ATP and 1 µM MEK1 K97R were added to the reaction wells corresponding to the compound incubation, and mixed evenly by shaking, and preincubation was performed in a constant temperature incubator at 37°C for 60 min for enzymatic reaction. After the reaction was completed, 5 µL of the above reaction product was pipetted to another 384-well plate, and 5 µL of formulated ADP-Glo™ Reagent (Promega, V9101) was added and mixed evenly by pipetting, and then the plate was placed at room temperature for 40 min. 10 µL Kinase Detection Reagent was added to the 384-well plate and incubated at room temperature for 40 min. Finally, a microplate reader (BMG LRBTECH) was used and Luminescence module was selected to detect the LUM fluorescence value of each well (the gain value was fixed at 3600), and the formula Inhibition rate% = (1−(LUM Compound−LUM Background)/(LUM Solvent−LUM Background))∗100% [formula] was used to calculate the inhibition rate of the compound on BRAFV600E. The Graphpad software log(inhibitor) vs. response -- Variable slope (four parameters) equation was used to perform fitting analysis and calculate the IC50value of the sample.

[5] = Liver microsomal stability test (monkey liver microsomal model); assay type: in vitro ADME; conditions: monkey liver microsomes, 1 µM test compound, NADPH, 37°C
Method: In this experiment, liver microsomes of five species, including human, monkey, dog, rat and mouse, were used as in vitro models to evaluate the metabolic stability of the test compound.
At 37°C, 1 µM of the test compound was co-incubated with microsomal protein and coenzyme NADPH. At given time points of the reaction (5 min, 10 min, 20 min, 30 min, and 60 min), the reaction was terminated by adding ice-cold acetonitrile containing an internal standard. The LC-MS/MS method was used to measure the concentration of the test compound in the sample. T1/2 was calculated using the ln value of the percentage of drug remaining in the incubation system and the incubation time. In addition, the intrinsic clearance in liver microsomes CLint(mic) and the intrinsic clearance in liver CLint(Liver) were further calculated. Table 6 Results of test compounds in monkey liver microsomal model

[6] = Pharmacokinetic test in rats; assay type: in vivo, SD rats; conditions: rat, plasma; for Vd: read-out: Vdss
Method: 5.1 Experimental animals: Male SD rats, about 220 g, 6-8 weeks old, 6 rats/compound, purchased from Chengdu Dossy Experimental Animals Co., Ltd.
5.2 Experimental design: On the day of the experiment, the SD rats were randomly grouped according to their body weights. The animals were fasted with water available for 12-14 h one day before the administration, and were fed 4 h after the administration.
5.3 Test compounds: compounds in the examples and control compounds. Table 5.1 Administration information
Before and after administration, 0.1 ml of blood was taken from the orbit under isoflurane anaesthesia and placed in an EDTAK2 centrifuge tube. The tube was centrifuged at 5000 rpm at 4°C for 10 min, and plasma was collected. Blood sampling time points for the intravenous administration group: 0 min, 5 min, 15 min, 30 min, 1 h, 2 h, 4 h, 6 h, 8 h, 24 h, and 48 h; blood sampling time points for the intragastric administration group: 0 min, 5 min, 15 min, 30 min, 1 h, 2 h, 4 h, 6 h, 8 h, 24 h, and 48 h. Before analysis and detection, all samples were stored at -80°C, and the samples were quantitatively analysed by LC-MS/MS. Table 5.2 Pharmacokinetic parameters of test compounds in plasma of rats

[7] = reported in the background; cited from earlier work
[8] = molecular target: T2, BCRP (Homo sapiens, UniProt Q9UNQ0); conditions: reported in the background; cited from earlier work
T2 sequence (Q9UNQ0 1-655): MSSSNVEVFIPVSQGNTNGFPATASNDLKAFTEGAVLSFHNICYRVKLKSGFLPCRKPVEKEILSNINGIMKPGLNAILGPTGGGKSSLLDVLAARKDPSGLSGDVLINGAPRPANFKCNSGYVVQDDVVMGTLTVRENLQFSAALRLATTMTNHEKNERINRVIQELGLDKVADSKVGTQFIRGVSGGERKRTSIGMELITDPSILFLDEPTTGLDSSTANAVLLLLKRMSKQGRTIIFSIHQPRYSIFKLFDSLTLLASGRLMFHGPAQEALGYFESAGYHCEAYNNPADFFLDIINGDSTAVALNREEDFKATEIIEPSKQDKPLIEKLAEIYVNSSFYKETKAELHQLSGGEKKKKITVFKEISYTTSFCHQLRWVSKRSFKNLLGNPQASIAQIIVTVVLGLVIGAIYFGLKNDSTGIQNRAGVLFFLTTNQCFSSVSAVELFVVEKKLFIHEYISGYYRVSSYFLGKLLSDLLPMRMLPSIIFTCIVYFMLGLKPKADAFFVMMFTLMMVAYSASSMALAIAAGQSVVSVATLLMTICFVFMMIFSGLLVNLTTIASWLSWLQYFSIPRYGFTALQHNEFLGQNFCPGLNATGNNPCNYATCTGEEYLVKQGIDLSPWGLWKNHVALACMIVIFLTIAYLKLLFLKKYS

[9] = molecular target: MDR1 (Homo sapiens, UniProt P08183); conditions: reported in the background; cited from earlier work
Sequence of MDR1 (P08183 whole entry, species assumed): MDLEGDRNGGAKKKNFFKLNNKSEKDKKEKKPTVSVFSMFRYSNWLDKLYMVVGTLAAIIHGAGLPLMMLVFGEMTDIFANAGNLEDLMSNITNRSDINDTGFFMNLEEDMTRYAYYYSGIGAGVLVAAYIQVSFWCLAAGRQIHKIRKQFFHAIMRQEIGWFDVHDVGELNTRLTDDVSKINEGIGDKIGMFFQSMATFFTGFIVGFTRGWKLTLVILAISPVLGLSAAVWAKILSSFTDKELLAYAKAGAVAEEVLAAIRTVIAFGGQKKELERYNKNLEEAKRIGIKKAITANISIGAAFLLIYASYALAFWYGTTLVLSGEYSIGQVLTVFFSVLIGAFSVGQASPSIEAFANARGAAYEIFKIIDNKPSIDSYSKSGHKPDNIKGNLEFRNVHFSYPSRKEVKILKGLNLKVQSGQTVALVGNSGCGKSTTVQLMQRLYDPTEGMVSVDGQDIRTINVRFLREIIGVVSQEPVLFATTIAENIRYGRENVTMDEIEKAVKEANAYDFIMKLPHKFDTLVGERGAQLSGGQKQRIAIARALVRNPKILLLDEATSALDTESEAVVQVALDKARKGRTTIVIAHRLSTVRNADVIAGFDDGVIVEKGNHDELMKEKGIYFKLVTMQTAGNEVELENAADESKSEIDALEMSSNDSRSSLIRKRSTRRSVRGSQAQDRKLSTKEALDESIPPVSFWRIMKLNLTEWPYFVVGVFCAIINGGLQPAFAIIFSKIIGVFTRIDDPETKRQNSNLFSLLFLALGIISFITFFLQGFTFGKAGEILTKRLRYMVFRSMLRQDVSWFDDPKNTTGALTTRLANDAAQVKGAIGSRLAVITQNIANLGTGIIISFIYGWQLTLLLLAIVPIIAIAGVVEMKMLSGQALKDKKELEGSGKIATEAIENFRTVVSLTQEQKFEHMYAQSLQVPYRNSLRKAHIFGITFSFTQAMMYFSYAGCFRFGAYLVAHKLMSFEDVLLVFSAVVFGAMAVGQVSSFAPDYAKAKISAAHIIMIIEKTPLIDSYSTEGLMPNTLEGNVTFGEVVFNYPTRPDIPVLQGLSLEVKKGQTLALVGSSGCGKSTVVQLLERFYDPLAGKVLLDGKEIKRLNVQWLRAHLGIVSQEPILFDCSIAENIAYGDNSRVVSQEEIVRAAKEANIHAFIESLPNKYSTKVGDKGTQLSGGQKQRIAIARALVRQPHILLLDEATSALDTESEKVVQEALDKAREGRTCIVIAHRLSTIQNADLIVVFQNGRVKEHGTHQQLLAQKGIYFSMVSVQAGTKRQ

[10] = A375 cells, values in text, read-out: IC50
[11] = Inhibitory activities of compounds on A375 cells, read-out: IC50/nM

| SMILES | Fold change in brain-blood ratio relative to control compound [1] | IC50 [2, 10] | IC50 [2, 11] | AUC(0-t) ([3]; iv, i.v. (2.5 mg/kg)) | clearance ([3]; iv, i.v. (2.5 mg/kg)) | half-life ([3]; iv, i.v. (2.5 mg/kg)) | Vd ([3]; iv, i.v. (2.5 mg/kg)) | bioavailability ([3]; po, i.g. (10 mg/kg)) | AUC(0-t) ([3]; po, i.g. (10 mg/kg)) | half-life ([3]; po, i.g. (10 mg/kg)) | IC50 [4] | Percentage of drug remaining after 60 min of incubation [5] | AUC(0-t) ([6]; iv, i.v. (2.5 mg/kg)) | clearance ([6]; iv, i.v. (2.5 mg/kg)) | half-life ([6]; iv, i.v. (2.5 mg/kg)) | Vd ([6]; iv, i.v. (2.5 mg/kg)) | bioavailability ([6]; po, i.g. (10 mg/kg)) | AUC(0-t) ([6]; po, i.g. (10 mg/kg)) | half-life ([6]; po, i.g. (10 mg/kg)) | also measured |
| --- | --- | --- | --- | --- | --- | --- | --- | --- | --- | --- | --- | --- | --- | --- | --- | --- | --- | --- | --- | --- |
| CC(F)=C1CN(S(=O)(=O)Nc2ccc(F)c(Oc3ccc4ncn(CC(F)F)c(=O)c4c3)c2C#N)C1 [Compound 24] | 8.1 | 2.16 nM | ≤ 10 nM | 91.8 µg·h/mL | 0.462 mL/min/kg | 8.1 h | 0.237 L/kg | > 98% | 492 µg·h/mL | 9.83 h | ≤ 10 nM | – | – | – | – | – | – | – | – | – |
| C=C1CN(S(=O)(=O)Nc2ccc(F)c(Oc3ccc4ncn(CC(F)F)c(=O)c4c3)c2C#N)C1 [Compound 3] | 10.8 | 0.14 nM | ≤ 10 nM | 225 µg·h/mL | 0.186 mL/min/kg | 8.68 h | 0.112 L/kg | 84.5% | 762 µg·h/mL | 10.3 h | ≤ 10 nM | 56.1% | 41 µg·h/mL | 0.091 mL/min/kg | 19.1 h | 0.126 L/kg | 62.8% | 1030 µg·h/mL | 13.9 h | – |
| CC=C1CN(S(=O)(=O)Nc2ccc(F)c(Oc3ccc4ncn(CCF)c(=O)c4c3)c2C#N)C1 [Compound 14] | 3.5 | 1.44 nM | ≤ 10 nM | 268 µg·h/mL | 0.154 mL/min/kg | 9.27 h | 0.098 L/kg | 85.1% | 912 µg·h/mL | 9 h | ≤ 10 nM | – | – | – | – | – | – | – | – | – |
| CC(C)(C)c1nc(-c2cccc(NS(=O)(=O)c3c(F)cccc3F)c2F)c(-c2ccnc(N)n2)s1 [dabrafenib] | – | – | – | – | – | – | – | – | – | – | – | – | – | – | – | – | – | – | – | total brain-to-plasma ratio [7]: 0.023; BCRP efflux ratio [8]: 21.0; MDR1 efflux ratio [9]: 11.4 |
| CC=C1CN(S(=O)(=O)Nc2ccc(F)c(Oc3ccc4ncn(CC(F)F)c(=O)c4c3)c2C#N)C1 [Compound 7] | 10.5 | 0.66 nM | ≤ 10 nM | 228 µg·h/mL | 0.171 mL/min/kg | 12.8 h | 0.156 L/kg | 90.6% | 825 µg·h/mL | 10.7 h | ≤ 10 nM | 48.2% | 376 µg·h/mL | 0.109 mL/min/kg | 14.2 h | 0.096 L/kg | 81.3% | 1220 µg·h/mL | 13.5 h | – |
